Data from US20240124456A1, “AZA-ERGOLINE DERIVATIVE AND PREPARATION METHOD THEREFOR AND APPLICATION THEREOF” (SHANGHAITECH UNIVERSITY, priority 2021, published 2024).

Key:
5-HT2A receptor = 5-HT2A receptor (Homo sapiens (Human), UniProt P28223); test: Radioligand competition binding, affinity for 5-HT2A receptor ([3H]-ketanserin); conditions: for binding selectivity, dopamine D2 receptor versus 5-HT2A receptor: Table 3 compared with Table 1; for Ki: [3H]-ketanserin, HEK-293T membranes
Procedure: The affinity of the compounds of the present invention for the 5-HT2A receptors was determined by the method of radioligand competition experiment. In the first step, a cell membrane component containing specific 5-HT2A receptor was prepared. A 10 cm dish was used for transfection with 10 ng of the 5-HT2A receptor and 40 μL of PEI. […] A vacuum pump was used to suck off the culture medium, 3 mL of lysis buffer was added to each well, and the cells were placed in a 4° C. freezer for 10 minutes. After the cells were detached, the cells were transferred to a 15 mL centrifuge tube and centrifuged at 1500 rpm for 5 minutes at 4° C., and the supernatant was discarded. The cell pellet was transferred to a tissue homogenizer, and 3 mL of lysis buffer was added and fully ground until the cells were broken. Then, cell suspension was equally divided into several EP tubes, centrifuged at 4° C. and 12000 rpm for 5 min, and the supernatant was discarded. The precipitate was the cell membrane component containing the 5-HT2A receptor. […] First, a standard binding buffer was added to the cell membrane component containing the 5-HT2A receptor, and the cell membrane was disrupted and resuspended with an electric tissue homogenizer. 30 μL of membrane protein suspension was added to each well of a 96-well plate. Then, 30 μL of different drugs were added to the 96-well plate from left to right to ensure that the final drug concentrations were 10^−5 M, 10^−6 M, 10^−7 M, 10^−8 M, 10^−9 M and 0 M, with two replicates per treatment. Next, 30 μL [^3H]-ketanserin was added to each well of the 96-well plate. The plate was incubated for 2 hours at room temperature in the dark. Detection. The machine reading value reflected the amount of [^3H]-ketanserin bound on the membrane, and after further data processing, the affinity Ki value of different compounds for 5-HT2A receptor was obtained.

dopamine D2 receptors = dopamine D2 receptors (Homo sapiens (Human), UniProt P14416); test: β-arrestin2 recruitment BRET, dopamine D2 receptor functional activity; type: cell-based; conditions: for EC50: HEK-293T, I-1 to 19 n=3, I-20 to 27 single determination, read-out: β-arrestin2 BRET EC50; for Emax: relative to the endogenous ligand dopamine, read-out: β-arrestin2 BRET Emax % ± SEM
Sequence of dopamine D2 receptors (P14416 whole entry): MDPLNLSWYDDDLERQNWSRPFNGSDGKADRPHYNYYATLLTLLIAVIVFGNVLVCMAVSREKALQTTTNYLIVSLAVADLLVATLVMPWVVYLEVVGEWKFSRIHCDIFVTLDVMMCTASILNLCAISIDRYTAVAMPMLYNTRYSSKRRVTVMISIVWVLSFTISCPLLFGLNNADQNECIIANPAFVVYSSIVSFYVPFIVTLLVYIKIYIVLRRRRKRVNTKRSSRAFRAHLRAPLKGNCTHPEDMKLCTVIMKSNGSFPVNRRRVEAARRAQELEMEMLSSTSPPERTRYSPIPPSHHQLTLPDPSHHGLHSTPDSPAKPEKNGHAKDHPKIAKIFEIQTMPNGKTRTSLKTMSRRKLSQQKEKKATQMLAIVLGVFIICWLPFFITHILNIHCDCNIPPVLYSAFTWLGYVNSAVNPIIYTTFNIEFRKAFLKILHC

Sequence of 5-HT2A receptor (P28223 whole entry): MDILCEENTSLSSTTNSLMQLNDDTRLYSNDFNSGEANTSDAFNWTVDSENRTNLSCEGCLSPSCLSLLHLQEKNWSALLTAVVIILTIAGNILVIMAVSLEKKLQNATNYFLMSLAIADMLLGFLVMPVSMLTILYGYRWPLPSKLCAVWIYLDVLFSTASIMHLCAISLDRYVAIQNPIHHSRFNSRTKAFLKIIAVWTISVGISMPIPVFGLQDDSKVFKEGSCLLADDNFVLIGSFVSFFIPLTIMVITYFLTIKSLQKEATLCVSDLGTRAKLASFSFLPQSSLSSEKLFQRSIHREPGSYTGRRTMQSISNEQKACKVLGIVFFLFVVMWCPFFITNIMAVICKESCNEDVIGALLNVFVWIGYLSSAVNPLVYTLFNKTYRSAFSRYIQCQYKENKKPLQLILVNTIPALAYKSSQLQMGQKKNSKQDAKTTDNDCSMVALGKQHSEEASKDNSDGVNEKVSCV

Compound: CN(C)C(=O)N[C@H]1CC[C@H](CCN2CCN3c4cccc5[nH]cc(c45)C[C@H]3C2)CC1 [(−)-I-10]
- affinity for 5-HT2A receptor (in words) (5-HT2A receptor): very weak affinity
- binding selectivity, dopamine D2 receptor versus 5-HT2A receptor (5-HT2A receptor): more than 100 times
- Ki (5-HT2A receptor): 2630 nM
- EC50 (dopamine D2 receptors): 2.75 nM
- Emax (dopamine D2 receptors): 89%

Compound: O=c1ccc2ccc(OCCCCN3CCN4c5cccc6[nH]cc(c56)CC4C3)cc2[nH]1 (racemic) [Compound I-2, 7-(4(4,6,6a,7,9,10-hexahydro-8H-pyrazino[1,2-a]pyrrolo[4,3,2-de]quinolin-8-yl)butoxy)quinolin-2(1H)-one]
- binding selectivity, dopamine D2 receptor versus 5-HT2A receptor (5-HT2A receptor): more than 100 times
- Ki (5-HT2A receptor): 907 nM
- EC50 (dopamine D2 receptors): 49 nM
- Emax (dopamine D2 receptors): 103%

Compound: CN(C)C(=O)N[C@H]1CC[C@H](CCN2CCN3c4cccc5[nH]cc(c45)C[C@@H]3C2)CC1 [(+)-I-10]
- affinity for 5-HT2A receptor (in words) (5-HT2A receptor): very weak affinity
- Ki (5-HT2A receptor): 2480 nM
- EC50 (dopamine D2 receptors): 5.25 nM
- Emax (dopamine D2 receptors): 90%

Compound: O=C1CCc2ccc(OCCCCN3CCN4c5cccc6[nH]cc(c56)CC4C3)cc2N1 (stereo not drawn) [Compound I-1, 7-(4(4,6,6a,7,9,10-hexahydro-8H-pyrazino[1,2-a]pyrrolo[4,3,2-de]quinolin-8-yl)butoxy)-3,4-dihydroquinolin-2(1H)-one]
- affinity for 5-HT2A receptor (in words) (5-HT2A receptor): very weak affinity
- binding selectivity, dopamine D2 receptor versus 5-HT2A receptor (5-HT2A receptor): more than 100 times
- Ki (5-HT2A receptor): 3640 nM
- EC50 (dopamine D2 receptors): 56.2 nM
- Emax (dopamine D2 receptors): 100%
